{"source": "patent US7329682B2", "about": "“Method for inhibiting 5-lipoxygenase using a benzoxazole derivative” (EWHA University-Industry Collaboration Foundation, priority 2003, dated 2008)", "key": {"5-lipoxygenase": {"target": "T1, 5-lipoxygenase (Mus musculus, UniProt P48999)", "T1 construct": "over 98% of cells were confirmed as mast cells originated from bone marrow; endogenous in cells; host or cells: bone marrow-derived mast cells from male BALB/cJ mice", "T1 sequence (P48999 1-674)": "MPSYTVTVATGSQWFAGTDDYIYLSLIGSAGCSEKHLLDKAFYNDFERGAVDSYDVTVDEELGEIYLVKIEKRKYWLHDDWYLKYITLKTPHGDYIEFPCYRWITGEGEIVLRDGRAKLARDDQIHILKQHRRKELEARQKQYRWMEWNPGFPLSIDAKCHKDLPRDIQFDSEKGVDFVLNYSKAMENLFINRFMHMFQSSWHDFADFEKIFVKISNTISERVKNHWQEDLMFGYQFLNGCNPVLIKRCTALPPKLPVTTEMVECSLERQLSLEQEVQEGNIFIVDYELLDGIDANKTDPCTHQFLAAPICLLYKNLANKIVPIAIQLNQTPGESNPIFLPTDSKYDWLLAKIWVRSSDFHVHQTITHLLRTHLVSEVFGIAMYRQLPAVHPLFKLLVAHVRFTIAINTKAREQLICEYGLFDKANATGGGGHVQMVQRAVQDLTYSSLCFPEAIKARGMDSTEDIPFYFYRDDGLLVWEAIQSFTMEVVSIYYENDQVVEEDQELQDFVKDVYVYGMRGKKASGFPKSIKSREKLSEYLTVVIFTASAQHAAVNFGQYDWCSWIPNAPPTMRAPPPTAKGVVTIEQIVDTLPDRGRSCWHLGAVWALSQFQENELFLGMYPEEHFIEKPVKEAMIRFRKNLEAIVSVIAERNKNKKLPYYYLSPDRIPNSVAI", "assay": "Measurement of 5-lipoxygenase inhibition activity (free LTC4 from SCF-stimulated bone marrow-derived mast cells, enzyme immunoassay)", "assay_type": "cell-based, mouse (male BALB/cJ mice)", "protocol": "Measurement of 5-lipoxygenase Inhibition Activity\nThe obtained cells were suspended in the enriched medium to a concentration of 1×10^6 cells/ml. […] 100 ng/ml of stem cell factor (SCF) was added to the culture medium, and then, the culture was centrifuged at 120 xg for 20 min at 4° C. Then, the supernatant was separated and the amount of free LTC4 was determined using an LTC4 enzyme immunoassay kit (Cayman Chemical, Ann Arbor, Mich., U.S.A.). The stem cell factor (SCF) was recombinantly expressed by the baculovirus/insect cell expression system. After 20-min stimulation, the supernatants were isolated for further analysis by enzyme immunoassay."}, "[1]": {"details": "mast cells originated from bone marrow of BALB/cJ mice, 1×10^6 cells/ml, 30 min preincubation at 37° C., 100 ng/ml SCF stimulation 20 min, free LTC4 by enzyme immunoassay, vs non-treated control, read-out: IC50"}}, "note": "Where two headings read alike, the source gives them in different places.", "data": [{"smiles": "CCc1ccc(Nc2nc3cccnc3s2)cc1", "note": "[Example 2]", "values": [{"measurement": "IC50", "setting": "5-lipoxygenase; [1]", "value": 10.3, "unit": "µM"}]}, {"smiles": "Clc1ccc(Nc2nc3cccnc3s2)cc1Cl", "note": "[Example 3]", "values": [{"measurement": "melting point", "value": "270 to 272", "unit": "°C"}, {"measurement": "IC50", "setting": "5-lipoxygenase; [1]", "value": 1.58, "unit": "µM"}]}, {"smiles": "c1ccc(N=Nc2ccc(Nc3nc4ccccc4o3)cc2)cc1", "note": "[Example 4, 4-phenylazophenyl aminobenzoxazole]", "values": [{"measurement": "IC50", "setting": "5-lipoxygenase; [1]", "value": 6.28, "unit": "µM"}]}, {"smiles": "c1ccc(Nc2nc3ccccc3o2)cc1", "note": "[Example 5]", "values": [{"measurement": "IC50", "setting": "5-lipoxygenase; [1]", "value": 8.91, "unit": "µM"}]}, {"smiles": "CCc1ccc(Nc2nc3ccccc3o2)cc1", "note": "[Example 6]", "values": [{"measurement": "melting point", "value": "123 to 125.3", "unit": "°C"}, {"measurement": "IC50", "setting": "5-lipoxygenase; [1]", "value": 1.21, "unit": "µM"}]}, {"smiles": "Clc1ccc2oc(Nc3ccc(N=Nc4ccccc4)cc3)nc2c1", "note": "[Example 7]", "values": [{"measurement": "melting point", "value": "191 to 192.3", "unit": "°C"}, {"measurement": "IC50", "setting": "5-lipoxygenase; [1]", "value": 12.6, "unit": "µM"}]}, {"smiles": "CCc1ccc(Nc2nc3cc(Cl)ccc3o2)cc1", "note": "[Example 9]", "values": [{"measurement": "melting point", "value": "196 to 198", "unit": "°C"}, {"measurement": "IC50", "setting": "5-lipoxygenase", "value": 0.95, "unit": "µM"}]}, {"smiles": "O=[N+]([O-])c1ccc2oc(Nc3ccc(N=Nc4ccccc4)cc3)nc2c1", "note": "[Example 10]", "values": [{"measurement": "IC50", "setting": "5-lipoxygenase; [1]", "value": 28.4, "unit": "µM"}]}, {"smiles": "CCc1ccc(Nc2nc3cc([N+](=O)[O-])ccc3o2)cc1", "note": "[Example 11]", "values": [{"measurement": "melting point", "value": "161 to 163.5", "unit": "°C"}, {"measurement": "IC50", "setting": "5-lipoxygenase; [1]", "value": 23.9, "unit": "µM"}]}, {"smiles": "c1ccc(-c2nc3ccccc3s2)cc1", "note": "[Example 12, 2-phenyl benzothiazole]", "values": [{"measurement": "IC50", "setting": "5-lipoxygenase; [1]", "value": 7.26, "unit": "µM"}]}, {"smiles": "Fc1ccc(-c2nc3ccccc3s2)cc1", "note": "[Example 13]", "values": [{"measurement": "melting point", "value": "128 to 130.5", "unit": "°C"}, {"measurement": "IC50", "setting": "5-lipoxygenase; [1]", "value": 11.2, "unit": "µM"}]}, {"smiles": "O=[N+]([O-])c1ccc(-c2nc3ccccc3s2)cc1", "note": "[Example 14]", "values": [{"measurement": "IC50", "setting": "5-lipoxygenase", "value": 11, "unit": "µM"}]}, {"smiles": "FC(F)Sc1ccccc1-c1nc2ccccc2s1", "note": "[Example 15]", "values": [{"measurement": "melting point", "value": "188 to 190", "unit": "°C"}, {"measurement": "IC50", "setting": "5-lipoxygenase; [1]", "value": 1.54, "unit": "µM"}]}, {"smiles": "N#Cc1ccc(-c2nc3ccccc3s2)cc1", "note": "[Example 16]", "values": [{"measurement": "melting point", "value": "120 to 123", "unit": "°C"}, {"measurement": "IC50", "setting": "5-lipoxygenase; [1]", "value": 4.32, "unit": "µM"}]}, {"smiles": "CCCCOc1ccc(-c2nc3ccccc3s2)cc1", "note": "[Example 17]", "values": [{"measurement": "IC50", "setting": "5-lipoxygenase; [1]", "value": 9.3, "unit": "µM"}]}, {"smiles": "O=[N+]([O-])c1ccc(Cl)c(-c2nc3ccccc3s2)c1", "note": "[Example 18]", "values": [{"measurement": "IC50", "setting": "5-lipoxygenase; [1]", "value": 2.5, "unit": "µM"}]}, {"smiles": "Cc1ccc(-c2nc3ccccc3s2)cc1N", "note": "[Example 19]", "values": [{"measurement": "IC50", "setting": "5-lipoxygenase; [1]", "value": 4.16, "unit": "µM"}]}, {"smiles": "Cc1ccc(-c2nc3ccccc3s2)cc1", "note": "[Example 20]", "values": [{"measurement": "IC50", "setting": "5-lipoxygenase; [1]", "value": 5.27, "unit": "µM"}]}, {"smiles": "COc1ccc(-c2nc3ccccc3s2)cc1OC", "note": "[Example 21]", "values": [{"measurement": "melting point", "value": "132 to 133", "unit": "°C"}, {"measurement": "IC50", "setting": "5-lipoxygenase; [1]", "value": 2.76, "unit": "µM"}]}, {"smiles": "ClCc1cccc(-c2nc3ccccc3s2)c1", "note": "[Example 22]", "values": [{"measurement": "IC50", "setting": "5-lipoxygenase; [1]", "value": 2.49, "unit": "µM"}]}, {"smiles": "CCSc1ncccc1-c1nc2ccccc2s1", "note": "[Example 23]", "values": [{"measurement": "IC50", "setting": "5-lipoxygenase; [1]", "value": 6.11, "unit": "µM"}]}, {"smiles": "Clc1ccccc1/C=C/c1nc2ccccc2s1", "note": "[Example 25]", "values": [{"measurement": "IC50", "setting": "5-lipoxygenase; [1]", "value": 2.92, "unit": "µM"}]}]}
